Like-named read-outs stand apart in the source and are kept apart here. Marks after values point to notes of the source that are not given here.
How the values were obtained:
[1] = test system: Human Breast Adenocarcinoma Cell Line MDA-MB-231; test: Drug cytotoxicity testing (viable cell count, trypan blue exclusion, cell growth inhibition); type: cell-based; details: for cell growth inhibition reached on increase of the concentration, in (B): sodium salt, range 10^-9 to 10^-7 M, dilution in normal saline (B)
Procedure: (§1) MDA-MB-231 cells were propagated in MEM culture medium with 2 mM L-glutamine, 10% heat-inactivated fetal bovine serum (FBS) and antibiotics. DU 145 cells were cultured in MEM culture medium containing 2 mM L-glutamine, 1 mM sodium pyruvate, 10% FBS and antibiotics. SKOV-3 cells were cultured in McCoy's 5A culture medium, supplemented with 1,5 mM L-glutamine, 10% FBS and antibiotics. A549 cells were cultured in Ham's F-12 culture medium with 1 mM L-glutamine, 10% FBS and antibiotics. All media and supplements were purchased from Sigma-Aldrich (St.Louis, MO, USA). Cell propagation of all lines was carried out in Falcon™ 25 cm^2 cultivation flasks (Becton Dickinson Labware).
(§2) Drug cytotoxicity testing was carried out with using Falcon™ 96-well cultivation plates for adherent cells (Becton Dickinson Labware). These plates were seeded by cells either at 12 × 10^3 MDA-MB-231 cells/well, or at 12 × 10^3 DU 145 cells/well, or at 14 × 10^3 SKOV-3 cells/well, or at 10 × 10^3 A549 cells/well in a volume of 200 µL/well.
(§3) The cell cultures in cultivation plates were allowed to adhere for 24 hour of incubation. On day 1 after cell seeding, 2 µL solutions of the drugs to be tested in medium with 5% FBS was added to the cultures. In the control cultures, 2 µL of medium with 5% FBS was added as solvent control. The cells were incubated for 2 consecutive days. At the end of the incubation period adherent cells were detached by trypsinization and the number of viable cells was counted using trypan blue exclusion test and a hemocytometer. All data were derived from an average of three determinations each in six replicates. The results were expressed as mean cell number ± SE and the differences between control and test series evaluated by means of Student's t-test. The drug cytotoxicity was evaluated based on the extent of cell growth inhibition. The cell growth inhibition of the tested drugs was calculated as follows: Cell growth inhibition,% = (Control-TestSeries)/(Control) × 100 [formula]
In the case of comparative evaluation of cytotoxicity of the inventive compounds themselves and the formulation related to consecutive dilutions of their initial solutions before adding to the cultures, 2 µL solutions of the drugs to be tested in medium with 5% FBS, in normal saline and in saline with 2,3 mM CaCl2 were added to the cultures. In control cultures, 2 µL of medium with 5% FBS, normal saline and saline with 2,3 mM CaCl2 were added as solvent controls (negative controls). […] Therefore an average of negative controls was calculated. […] Therefore an average of positive controls was calculated (for each antibiotic).

[2] = test system: Human Prostate Carcinoma Cell Line DU 145; test: as above; type: cell-based; details: alone or in formulation at molar ratio 1:6
Procedure: as §1, §2, §3

[3] = rat, in vivo, ip
Procedure: A single dose i.p. toxicity study in rats was carried out. […] The minimal lethal dose is thus above 100 mg/kg body weight for these compounds.

[4] = cytotoxic drug 10^-8 mol/L, working solutions in medium with 5% FBS
[5] = Homo sapiens, MDA-MB-231, compound alone 10^-7 mol/L, in A (saline with […] CaCl2), read-out: cell growth inhibition
[6] = Homo sapiens, MDA-MB-231, compound alone 10^-7 mol/L, in B (normal saline), read-out: cell growth inhibition
[7] = Homo sapiens, MDA-MB-231, compound alone 10^-7 mol/L, read-out: Cell growth inhibition in A compared to that in B was increased by
[8] = Homo sapiens, MDA-MB-231, compound alone 10^-8 mol/L, in A (saline with […] CaCl2), read-out: cell growth inhibition
[9] = Homo sapiens, MDA-MB-231, compound alone 10^-8 mol/L, in B (normal saline), read-out: cell growth inhibition
[10] = Homo sapiens, MDA-MB-231, compound alone 10^-8 mol/L, read-out: Cell growth inhibition in A compared to that in B was increased by
[11] = Homo sapiens, MDA-MB-231, compound alone 10^-9 mol/L, in A (saline with […] CaCl2), read-out: cell growth inhibition
[12] = Homo sapiens, MDA-MB-231, compound alone 10^-9 mol/L, in B (normal saline), read-out: cell growth inhibition
[13] = Homo sapiens, MDA-MB-231, compound alone 10^-9 mol/L, read-out: Cell growth inhibition in A compared to that in B was increased by
[14] = compound alone 10^-7 mol/L, in B (normal saline)
[15] = compound alone 10^-8 mol/L, in B (normal saline)
[16] = compound alone 10^-9 mol/L, in B (normal saline)
[17] = Homo sapiens, MDA-MB-231, 48 h, compound alone, final concentration 10^-8 mol/L, working solutions in MEM with 5% FBS, two days, read-out: cell growth inhibition
[18] = Homo sapiens, MDA-MB-231, 48 h, compound alone, final concentration 10^-9 mol/L, working solutions in MEM with 5% FBS, two days, read-out: cell growth inhibition
[19] = compound alone, final concentration 10^-7 mol/L, working solutions in MEM with 5% FBS, two days
[20] = compound alone, final concentration 10^-8 mol/L, working solutions in MEM with 5% FBS, two days
[21] = compound alone, final concentration 10^-9 mol/L, working solutions in MEM with 5% FBS, two days
[22] = Homo sapiens, MDA-MB-231, 48 h, compound alone, final concentration 10^-7 mol/L, working solutions in MEM with 5% FBS, two days, read-out: cell growth inhibition

Row | Compound | inhibition at 0.1 µM [1, 6] | inhibition at 0.1 µM [1, 7] | inhibition at 0.01 µM [1, 8] | inhibition at 0.01 µM [1, 9] | inhibition at 0.01 µM [1, 10] | inhibition at 0.001 µM [1, 11] | inhibition at 0.001 µM [1, 12] | inhibition at 0.001 µM [1, 13] | number of viable cells [1, 14] | number of viable cells [1, 15] | number of viable cells [1, 16] | cell growth inhibition reached on increase of the concentration, in (B) [1] | inhibition at 0.01 µM [1, 17] | inhibition at 0.001 µM [1, 18] | number of viable cells [1, 19] | number of viable cells [1, 20] | number of viable cells [1, 21] | inhibition at 0.1 µM [1, 22] | also measured
1 | O=C1c2c(O)ccc(O)c2C(=O)c2c(NCCNCCO)ccc(NCCNCCO)c21 [Mitoxantrone, mitoxantrone] | – | – | – | – | – | – | – | – | – | – | – | – | – | – | – | – | – | – | IC50 ([1]; Homo sapiens, MDA-MB-231, as concentration of cytotoxic drug, alone or in formulation at molar ratio 1:6, medium with 5% FBS, calculated from three concentrations, read-out: IC50 mol/L (a)): 5 nM; inhibition at 0.1 µM ([1]; Homo sapiens, MDA-MB-231, cytotoxic drug 10^-7 mol/L (100 nM), alone or in formulation at molar ratio 1:6, working solutions in medium with 5% FBS, read-out: Cell Growth Inhibition, %): 58.8%; inhibition at 0.01 µM ([1]; Homo sapiens, MDA-MB-231, cytotoxic drug 10^-8 mol/L, alone or in formulation at molar ratio 1:6, working solutions in medium with 5% FBS, read-out: Cell Growth Inhibition, %): 52.6%; inhibition at 0.001 µM ([1]; Homo sapiens, MDA-MB-231, cytotoxic drug 10^-9 mol/L, alone or in formulation at molar ratio 1:6, working solutions in medium with 5% FBS, read-out: Cell Growth Inhibition, %): 43.6%; Tumor Cell Number, × 10^3 ([1]; cytotoxic drug 10^-7 mol/L (100 nM), alone or in formulation at molar ratio 1:6, working solutions in medium with 5% FBS): 22.5 ± 1.63 × 10^3; Cell Growth Inhibition, % ([1]; cytotoxic drug 10^-7 mol/L (100 nM), alone or in formulation at molar ratio 1:6, working solutions in medium with 5% FBS, 0.1 µM): 61.1* %; Tumor Cell Number, × 10^3 ([1]; cytotoxic drug 10^-7 mol/L (100 nM), alone or in formulation at molar ratio 1:6, working solutions in medium with 5% FBS, listed as mitoxantrone): 22.9 ± 1.49 × 10^3; Tumor Cell Number, × 10^3 ([1]; cytotoxic drug 10^-8 mol/L, alone or in formulation at molar ratio 1:6, working solutions in medium with 5% FBS): 27.4 ± 1.90 × 10^3; Tumor Cell Number, × 10^3 ([1]; cytotoxic drug 10^-9 mol/L, alone or in formulation at molar ratio 1:6, working solutions in medium with 5% FBS): 32.6 ± 1.99 × 10^3; inhibition at 0.1 µM ([2]; Homo sapiens, DU-145, cytotoxic drug 10^-7 mol/L (100 nM), working solutions in medium with 5% FBS): 60.2%; inhibition at 0.01 µM ([2]; Homo sapiens, DU-145, cytotoxic drug 10^-8 mol/L, working solutions in medium with 5% FBS): 39.1%; inhibition at 0.001 µM ([2]; Homo sapiens, DU-145, cytotoxic drug 10^-9 mol/L, working solutions in medium with 5% FBS): 19.1%; IC50 ([2]; Homo sapiens, DU-145, as concentration of cytotoxic drug, medium with 5% FBS, calculated from three concentrations, read-out: IC50 mol/L (a)): 32 nM; Tumor Cell Number, × 10^3 ([2]; cytotoxic drug 10^-7 mol/L (100 nM), working solutions in medium with 5% FBS): 23.1 ± 1.34 × 10^3; Cell Growth Inhibition, % ([2]; cytotoxic drug 10^-7 mol/L (100 nM), working solutions in medium with 5% FBS, 0.1 µM): 59.8* %; Tumor Cell Number, × 10^3 ([2]; cytotoxic drug 10^-7 mol/L (100 nM), working solutions in medium with 5% FBS, listed as mitoxantrone): 19.2 ± 1.16 × 10^3; Cell Growth Inhibition, % [2, 4]: 39.1 * %; Tumor Cell Number, × 10^3 [2, 4]: 35.0 ± 1.70 × 10^3; Tumor Cell Number, × 10^3 ([2]; cytotoxic drug 10^-9 mol/L, working solutions in medium with 5% FBS): 46.5 ± 2.32 × 10^3
2 | CC1=C(/C=C/C(C)=C/C=C/C(C)=C/C(=O)N[C@@H](CS(=O)(=O)O)C(=O)O)C(C)(C)CCC1 [compound I-1, N-(all-trans-Retinoyl)-L-cysteic acid] | 31.3% | 14.8% | 40.2% | 29.7% | 15% | 36.9% | 24.8% | 16.1% | 39.1 ± 1.41 × 10^3 | 40.0 ± 1.35 × 10^3 | 42.8 ± 1.56 × 10^3 | ~31% | – | – | – | – | – | – | inhibition at 0.1 µM [1, 5]: 41.5%; minimal lethal dose [3]: above 100 mg/kg body weight
3 | CNC(=O)[C@H](CS(=O)(=O)O)NC(=O)/C=C(C)/C=C/C=C(C)/C=C/C1=C(C)CCCC1(C)C [compound I-1g, N-(all-trans-retinoyl)-L-cysteic acid methylamide] | 22.8% | 26.5% | 36.7% | 14.2% | 26.3% | 28.5% | 4.2% | 25.4% | 43.1 ± 2.03 × 10^3 | 47.9 ± 2.86 × 10^3 | 53.5 ± 3.21 × 10^3 | ~23% | 35.9% | 27.8% | 32.1 ± 1.72 × 10^3 | 36.2 ± 1.95 × 10^3 | 40.8 ± 2.14 × 10^3 | – | cell growth inhibition reached when increasing the concentration ([1]; compound alone (sodium salt), concentration range 10^-9 to 10^-7 M): ~43%
4 | CC1=C(/C=C/C(C)=C/C=C/C(C)=C\C(=O)N[C@@H](CS(=O)(=O)O)C(=O)O)C(C)(C)CCC1 [compound II-1, N-(13-cis-Retinoyl)-L-cysteic acid] | 32.2% | 15.5% | 41.3% | 30.6% | 15.4% | 37.4% | 25.5% | 16% | 38.6 ± 1.25 × 10^3 | 39.5 ± 1.46 × 10^3 | 42.4 ± 1.63 × 10^3 | ~32% | – | – | – | – | – | – | inhibition at 0.1 µM [1, 5]: 42.7%
5 | CCOC(=O)[C@H](CS(=O)(=O)O)NC(=O)\C=C(C)/C=C/C=C(C)/C=C/C1=C(C)CCCC1(C)C [compound II-1b, N-(13-cis-retinoyl)-L-cysteic acid ethyl ester] | – | – | – | – | – | – | – | – | – | – | – | – | 46.3% | 41.4% | 29.8 ± 1.70 × 10^3 | 31.4 ± 1.94 × 10^3 | 34.3 ± 1.88 × 10^3 | 49.1% | –
6 | CC1=C(/C=C/C(C)=C/C=C/C(C)=C\C(=O)N[C@@H](CS(=O)(=O)O)C(=O)OC(C)C)C(C)(C)CCC1 [compound II-1c, N-(13-cis-retinoyl)-L-cysteic acid isopropyl ester] | – | – | – | – | – | – | – | – | – | – | – | – | 47% | 42.6% | – | – | 33.6 ± 2.75 × 10^3 | 50.4% | –
7 | CCCOC(=O)[C@H](CS(=O)(=O)O)NC(=O)\C=C(C)/C=C/C=C(C)/C=C/C1=C(C)CCCC1(C)C [compound II-1d, N-(13-cis-retinoyl)-L-cysteic acid propyl ester] | – | – | – | – | – | – | – | – | – | – | – | – | 50.4% | 44.9% | 26.3 ± 1.86 × 10^3 | 28.2 ± 1.29 × 10^3 | 31.3 ± 2.68 × 10^3 | 53.7% | –
8 | CCCCOC(=O)[C@H](CS(=O)(=O)O)NC(=O)\C=C(C)/C=C/C=C(C)/C=C/C1=C(C)CCCC1(C)C [compound II-1e, N-(13-cis-retinoyl)-L-cysteic acid butyl ester] | – | – | – | – | – | – | – | – | – | – | – | – | 50.7% | 45.6% | – | – | 30.9 ± 1.82 × 10^3 | – | –
9 | CC1=C(/C=C/C(C)=C/C=C/C(C)=C\C(=O)N[C@@H](CCS(=O)(=O)O)C(=O)O)C(C)(C)CCC1 [compound II-3, N-(13-cis-Retinoyl)-L-homocysteic acid] | – | – | – | – | – | – | – | – | – | – | – | – | – | – | – | – | – | – | minimal lethal dose [3]: above 100 mg/kg body weight

Source: EP1534672B1, “RETINOL DERIVATIVES, THEIR USE IN THE TREATMENT OF CANCER AND FOR POTENTIATING THE EFFICACY OF OTHER CYTOTOXIC AGENTS” (priority 2002, dated 2004)
